Our source for the IC50 values is US10669268B2, “Bicyclic derivatives” (Hoffmann-La Roche Inc., priority 2012, dated 2020).

In this experiment the target is ATX (human His-tagged) (Homo sapiens (Human), UniProt Q13822). The experiment can be described thus: Human ATX enzyme inhibition assay (fluorescence quenching, MR121 substrate). The experiment is classed as biochemical. Conditions: 30 nM ATX, 1 μM MR121 substrate, 30° C., pH 8.0. Summed up: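 Fluorescence-quenching assay using MR121 substrate at 1 μM final, incubated 15 min at 30 °C. Buffer was 50 mM Tris-HCl pH 8.0 with 140 mM NaCl, 5 mM KCl, 1 mM CaCl2, 1 mM MgCl2 and 0.01% Triton X-100.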

The IC50 is the concentration that inhibits the measured activity by half. A low value points to greater potency. For `O=C(CCc1ccc(OC(F)(F)F)cc1)N1C[C@@H]2CN(C(=O)c3ccc4[nH]nnc4c3)C[C@H]2C1` [Example 15.44], the IC50 was 6 nM. Consider `O=C(/C=C/c1cccnc1)N1CC[C@@H]2CN(C(=O)c3ccc4[nH]nnc4c3)C[C@@H]2CC1` [Example 15.17], for which half-maximal inhibition (IC50) was put at 3950 nM. The same measure for `O=C(/C=C/c1cc(Cl)cc(Cl)c1)N1CC[C@@H]2CN(C(=O)c3ccc4[nH]nnc4c3)C[C@@H]2CC1` [Example 15.27]: 2 nM.

Compound `O=C(/C=C/c1ccc(OC(F)(F)F)cc1)N1CC[C@@H]2CN(C(=O)C3CCc4[nH]nnc4C3)C[C@@H]2CC1` (stereo partly drawn) [Example 1, (E)-1-[(3aS,8aR)-2-(4,5,6,7-Tetrahydro-1H-benzotriazole-5-carbonyl)-octahydro-pyrrolo[3,4-d]azepin-6-yl]-3-(4-trifluoromethoxy-phenyl)-prop-2-en-1-one] gave a concentration for half-maximal inhibition (IC50) of 8 nM. With `O=C(OCc1cc(Cl)cc(Cl)c1)N1C[C@@H]2CN(C(=O)c3ccc4[nH]cnc4c3)C[C@@H]2C1` [Example 1.08, (3aR,6aS)-3,5-dichlorobenzyl 5-(1H-benzo[d]imidazole-5-carbonyl)hexahydropyrrolo[3,4-c]pyrrole-2(1H)-carboxylate], the half-inhibitory concentration (IC50) worked out at 503 nM. `CS(=O)(=O)c1cc(COC(=O)N2CC[C@@H]3CN(C(=O)c4ccc5[nH]nnc5c4)C[C@@H]3CC2)cc(C(F)(F)F)c1` [Example 4.05, (3aS,8aR)-2-(1H-benzotriazole-5-carbonyl)-octahydro-pyrrolo[3,4-d]azepine-6-carboxylic acid 3-methanesulfonyl-5-trifluoromethyl-benzyl ester] came in with a concentration for half-maximal inhibition (IC50) of 11 nM. Compound `O=C(/C=C/c1ccccc1)N1CC[C@@H]2CN(C(=O)c3ccc4[nH]nnc4c3)C[C@@H]2CC1` [Example 15.15] came in with an IC50 of 156 nM. Compound `O=C(/C=C/c1cc(Cl)cc(C(F)(F)F)c1)N1CC[C@@H]2CN(C(=O)c3ccc4[nH]nnc4c3)C[C@@H]2CC1` [Example 1.27, (E)-1-((3aR,8aS)-2-(1H-benzo[d][1,2,3]triazole-5-carbonyl)octahydropyrrolo[3,4-d]azepin-6(7H)-yl)-3-(3-chloro-5-(trifluoromethyl)phenyl)prop-2-en-1-one] had an IC50 of 8 nM. For the compound `O=C(CCc1ccc(OC(F)(F)F)cc1)N1C[C@@H]2CN(C(=O)c3ccc4[nH]nnc4n3)C[C@H]2C1` [Example 1.50, 1-[(3aR,6aR)-5-(1H-triazolo[4,5-b]pyridine-5-carbonyl)-1,3,3a,4,6,6a-hexahydropyrrolo[3,4-c]pyrrol-2-yl]-3-[4-(trifluoromethoxy)phenyl]propan-1-one], half-maximal inhibition (IC50) required 17 nM. `O=C(/C=C/c1ccc(OC(F)(F)F)cc1)N1CC[C@@H]2CN(C(=O)NCc3nnc[nH]3)C[C@@H]2CC1` [Example 9.04] displayed a concentration for half-maximal inhibition (IC50) of 713 nM.

Compound `O=C(/C=C/c1ccc(OC(F)(F)F)cc1)N1C[C@@H]2CN(C(=O)c3ccc4[nH]nnc4c3)CC[C@H]2C1` (single isomer, unassigned) [Example 15.26] displayed a concentration for half-maximal inhibition (IC50) of 8 nM.

The compound `O=C(OCc1cc(Cl)cc(Cl)c1)N1C[C@@H]2CN(C(=O)c3ccc4[nH]c5ccccc5c4c3)C[C@@H]2C1` [Example 1.06, (3aR,6aS)-3,5-dichlorobenzyl 5-(9H-carbazole-3-carbonyl)hexahydropyrrolo[3,4-c]pyrrole-2(1H)-carboxylate] gave an IC50 of 255 nM. `O=C(OCc1ccc(OC(F)(F)F)cc1F)N1C[C@@H]2CN(C(=O)[C@@H]3CCc4[nH]nnc4C3)C[C@H]2C1` [Example 4.48, (3aS,6aS)-5-((R)-4,5,6,7-tetrahydro-1H-benzotriazole-5-carbonyl)-hexahydro-pyrrolo[3,4-c]pyrrole-2-carboxylic acid 2-fluoro-4-trifluoromethoxy-benzyl ester] gave an IC50 of 3 nM. The result for `COc1ccc(CCC(=O)N2CC[C@@H]3CN(C(=O)c4ccc5[nH]nnc5c4)C[C@@H]3CC2)c(C(F)(F)F)c1` [Example 17.18, 1-((3aR,8aS)-2-(1H-benzo[d][1,2,3]triazole-5-carbonyl)octahydropyrrolo[3,4-d]azepin-6(7H)-yl)-3-(4-methoxy-2-(trifluoromethyl)phenyl)propan-1-one] reads 14 nM; that for `O=C(CCc1ccccc1C1CC1)N1CC[C@@H]2CN(C(=O)c3ccc4[nH]nnc4c3)C[C@@H]2CC1` [Example 17.19, 1-((3aR,8aS)-2-(1H-benzo[d][1,2,3]triazole-5-carbonyl)octahydropyrrolo[3,4-d]azepin-6(7H)-yl)-3-(2-cyclopropylphenyl)propan-1-one], 12 nM. The result for `O=C(/C=C/c1ccc(SC(F)(F)F)cc1)N1CC[C@@H]2CN(C(=O)c3ccc4[nH]nnc4c3)C[C@@H]2CC1` [Example 15.69, (E)-1-((3aR,8aS)-2-(1H-benzo[d][1,2,3]triazole-5-carbonyl)octahydropyrrolo[3,4-d]azepin-6(7H)-yl)-3-(4-(trifluoromethylthio)phenyl)prop-2-en-1-one] reads 8 nM. With `O=C(/C=C/c1ccc(OC(F)(F)F)cc1)N1CC[C@@H]2CN(C(=O)NCCc3cnn[nH]3)C[C@@H]2CC1` [Example 9.09, (3aR,8aS)-N-(2-(1H-1,2,3-triazol-5-yl)ethyl)-6-((E)-3-(4-(trifluoromethoxy)-phenyl)acryloyl)octahydropyrrolo[3,4-d]azepine-2(1H)-carboxamide], half-maximal inhibition (IC50) required 162 nM. `O=C(/C=C/c1ccc(OC(F)F)cc1)N1C[C@H]2CCN(C(=O)c3ccc4[nH]nnc4c3)C[C@@H]2C1` (single isomer, unassigned) [Example 15.32] registered a half-maximal inhibitory concentration (IC50) of 19 nM. `O=C(/C=C/c1ccc(OC(F)(F)F)cc1)N1CC[C@@H]2CN(C(=O)N3CCc4ncccc4C3)C[C@@H]2CC1` [Example 8.06] yielded an IC50 of 192 nM. `O=C(/C=C/c1ccc(OC(F)(F)F)cc1)N1CC[C@@H]2CN(C(=O)NCc3cnn[nH]3)C[C@@H]2CC1` [Example 9.01] displayed an IC50 of 38 nM. With `O=C(OCc1ccc(OC(F)(F)F)cc1)N1C[C@@H]2CN(C(=O)c3cnc4[nH]nnc4c3)C[C@H]2C1` [Example 1.49, (3aS,6aS)-5-(3H-[1,2,3]triazolo[4,5-b]pyridine-6-carbonyl)-hexahydro-pyrrolo[3,4-c]pyrrole-2-carboxylic acid 4-trifluoromethoxy-benzyl ester], it took 218 nM to reach half-maximal inhibition (IC50).

`O=C(OCc1ccc(OCC(F)(F)F)c(F)c1)N1CC[C@@H]2CN(C(=O)c3ccc4[nH]nnc4c3)C[C@@H]2CC1` [Example 1.46, (3aS,8aR)-2-(1H-benzotriazole-5-carbonyl)-octahydro-pyrrolo[3,4-d]azepine-6-carboxylic acid 3-fluoro-4-(2,2,2-trifluoro-ethoxy)-benzyl ester] returned an IC50 of 2 nM. For `O=C(/C=C/c1ccc(OC(F)(F)F)cc1)N1CC[C@H]2CN(C(=O)c3ccc4[nH]nnc4c3)C[C@H]2C1` [Example 15.37], the concentration for half-maximal inhibition (IC50) is 93 nM.

`Cc1cc(COC(=O)N2C[C@@H]3CN(C(=O)c4ccc5[nH]nnc5c4)C[C@H]3C2)c(C(C)C)cc1C#N` [Example 4.53, (3aS,6aS)-5-(1H-benzotriazole-5-carbonyl)-hexahydro-pyrrolo[3,4-c]pyrrole-2-carboxylic acid 4-cyano-2-isopropyl-5-methyl-benzyl ester] showed an IC50 of 5 nM.
